Test results reported in PubChem BioAssay AID1259411 (Chemical Carcinogenesis Research Information System (CCRIS), 2018).
The source made the active and inactive calls. How the calls were made is not given here.

Tested on: rodent carcinogenicity bioassays, tumor incidence
Assay: CCRIS carcinogenicity studies
Details: Species: RAT
Procedure, shortened: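 Archive of carcinogenicity, mutagenicity, tumor promotion and tumor inhibition results drawn from journals, NCI reports and other sources, expert-reviewed; covers 1985-2011 and is no longer updated.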

Measured: carcinogen call

C=CCl
active: Strain/Sex: SPRAGUE-DAWLEY/MALE,FEMALE, Route: GAVAGE, Dose: 0, 3.33, 16.65, 50.0 MG/KG IN OLIVE OIL 1/D, 4-5 D/WK FOR 52 WK (STUDY DURATION: 136 WK), Dose: 0, 3.33, 16.65, 50.0 MG/KG IN OLIVE OIL 1/D, 4-5 D/WK FOR 52 WK (STUDY DURATION: 136 WK), Tumor Site: Type of Lesion: LIVER: ANGIOSARCOMA active; positive | Strain/Sex: SPRAGUE-DAWLEY/MALE,FEMALE, Route: INHALATION, Dose: 0, 50-10000 PPM 4 HR/D, 5 D/WK FOR 52 WK (STUDY DURATION: 135 WK), Tumor Site: Type of Lesion: LIVER: ANGIOSARCOMA, NERVOUS SYSTEM: NEUROBLASTOMA, EAR (ZYMBAL GLAND): CARCINOMA, KIDNEY: NEPHROBLASTOMA, Tumor Site: Type of Lesion: LIVER: ANGIOSARCOMA, NERVOUS SYSTEM: NEUROBLASTOMA, EAR (ZYMBAL GLAND): CARCINOMA, KIDNEY: NEPHROBLASTOMA active; positive | Strain/Sex: SPRAGUE-DAWLEY/MALE, Route: INHALATION, Dose: 0, 600 PPM 4 HR/D, 5 D/WK FOR 1 YR (STUDY DURATION: 2.5 YR), Tumor Site: Type of Lesion: LIVER: HEPATOCELLULAR CARCINOMA, ANGIOSARCOMA active; positive | Strain/Sex: SPRAGUE-DAWLEY/MALE, Route: INHALATION, Dose: 0, 2500 PPM 4 HR/D 5 D/WK FOR 7 WK THEN 7 HR/D 5 D/WK FOR 8 WK ADMINISTERED TO RAT EMBRYOS BEGINNING ON 12TH DAY OF GEST, Tumor Site: Type of Lesion: LIVER: HEPATOMA, ANGIOSARCOMA, BRAIN: NEUROBLASTOMA active; positive | Strain/Sex: SPRAGUE-DAWLEY/MALE, Route: INHALATION, Dose: 0, 2500 PPM 4 HR/D 5 D/WK FOR 7 WK THEN 7 HR/D 5 D/WK FOR 69 WK ADMINISTERED TO RAT EMBRYOS BEGINNING ON 12TH DAY OF GES, Tumor Site: Type of Lesion: BRAIN: NEUROBLASTOMA, LIVER, HEPATOCARCINOMA, ANGIOSARCOMA, Tumor Site: Type of Lesion: BRAIN: NEUROBLASTOMA, LIVER, HEPATOCARCINOMA, ANGIOSARCOMA active; positive | Strain/Sex: SPRAGUE-DAWLEY, Route: ORAL, Tumor Site: Type of Lesion: LIVER active; positive | Strain/Sex: WISTAR/FEMALE, Route: ORAL, Dose: 0, 0.014, 0.13, 1.3 MG/KG/BW/D IN DIET FOR DURATION OF STUDY (STUDY DURATION: 150 WK), Dose: 0, 0.014, 0.13, 1.3 MG/KG/BW/D IN DIET FOR DURATION OF STUDY (STUDY DURATION: 150 WK), Tumor Site: Type of Lesion: LIVER: NEOPLASTIC NODULES active; positive | Strain/Sex: WISTAR/MALE, Route: INHALATION, Dose: 0, 1, 50, 250, 500, 2500, 6000, 10000 PPM 4 HR/D, 5 D/WK FOR 52 WK (STUDY DURATION: 134-165 WK), Dose: 0, 1, 50, 250, 500, 2500, 6000, 10000 PPM 4 HR/D, 5 D/WK FOR 52 WK (STUDY DURATION: 134-165 WK), Tumor Site: Type of Lesion: LIVER: ANGIOSARCOMA, NERVOUS SYSTEM: NEUROBLASTOMA active; positive | Strain/Sex: WISTAR/MALE, Route: ORAL, Dose: 0, 0.014, 0.13, 1.3 MG/KG/BW/D IN DIET FOR DURATION OF STUDY (STUDY DURATION: 149 WK), Dose: 0, 0.014, 0.13, 1.3 MG/KG/BW/D IN DIET FOR DURATION OF STUDY (STUDY DURATION: 149 WK), Tumor Site: Type of Lesion: LIVER: HEPATOCELLULAR CARCINOMA active; positive
inactive: Strain/Sex: SPRAGUE-DAWLEY/FEMALE, Route: INHALATION, Dose: 0, 6000, 10000 PPM IN AIR 4 HR/D 1 D/WK FOR 25 WK (STUDY DURATION: LIFETIME), Dose: 0, 6000, 10000 PPM IN AIR 4 HR/D 1 D/WK FOR 25 WK (STUDY DURATION: LIFETIME), Tumor Site: Type of Lesion: [BRAIN WAS ONLY SITE EVALUATED] inactive; negative | Strain/Sex: SPRAGUE-DAWLEY/FEMALE, Route: INHALATION, Dose: 0, 6000, 10000 PPM IN AIR 4 HR/D 5 D/WK FOR 5 WK (STUDY DURATION: LIFETIME), Dose: 0, 6000, 10000 PPM IN AIR 4 HR/D 5 D/WK FOR 5 WK (STUDY DURATION: LIFETIME), Tumor Site: Type of Lesion: [BRAIN WAS ONLY SITE EVALUATED] inactive; negative | Strain/Sex: SPRAGUE-DAWLEY/MALE, Route: GAVAGE, Dose: 0, 0.03, 0.3, 1, 3.33, 16.65, 50 MG/KG BW IN OLIVE OIL 1/D 4-5 D/WK FOR 52-59 WK (STUDY DURATION: LIFETIME), Dose: 0, 0.03, 0.3, 1, 3.33, 16.65, 50 MG/KG BW IN OLIVE OIL 1/D 4-5 D/WK FOR 52-59 WK (STUDY DURATION: LIFETIME), Tumor Site: Type of Lesion: [BRAIN WAS ONLY SITE EVALUATED] inactive; negative | Strain/Sex: SPRAGUE-DAWLEY/MALE, Route: INHALATION, Dose: 0, 6000, 10000 PPM IN AIR 1 HR/D 4 D/WK FOR 25 WK (STUDY DURATION: LIFETIME), Dose: 0, 6000, 10000 PPM IN AIR 1 HR/D 4 D/WK FOR 25 WK (STUDY DURATION: LIFETIME), Tumor Site: Type of Lesion: [BRAIN WAS ONLY SITE EVALUATED] inactive; negative | Strain/Sex: SPRAGUE-DAWLEY/MALE, Route: INHALATION, Dose: 0, 6000, 10000 PPM IN AIR 4 HR/D 1 D/WK FOR 25 WK (STUDY DURATION: LIFETIME), Dose: 0, 6000, 10000 PPM IN AIR 4 HR/D 1 D/WK FOR 25 WK (STUDY DURATION: LIFETIME), Tumor Site: Type of Lesion: [BRAIN WAS ONLY SITE EVALUATED] inactive; negative | Strain/Sex: SPRAGUE-DAWLEY/MALE, Route: INHALATION, Dose: 0, 6000, 10000 PPM IN AIR 4 HR/D 5 D/WK FOR 5 WK (STUDY DURATION: LIFETIME), Dose: 0, 6000, 10000 PPM IN AIR 4 HR/D 5 D/WK FOR 5 WK (STUDY DURATION: LIFETIME), Tumor Site: Type of Lesion: [BRAIN WAS ONLY SITE EVALUATED] inactive; negative
